Test results taken from US8420655B2, “Benzimidazole inhibitors of leukotriene production” (Boehringer Ingelheim International GmbH, priority 2009, dated 2013).

Target: T1, recombinant human FLAP protein (Homo sapiens, UniProt P20292)
T1 construct: made in house; host or cells: Sf9 insect cells (membrane fraction, 100,000 x g pellet)
T1 sequence (P20292 1-161): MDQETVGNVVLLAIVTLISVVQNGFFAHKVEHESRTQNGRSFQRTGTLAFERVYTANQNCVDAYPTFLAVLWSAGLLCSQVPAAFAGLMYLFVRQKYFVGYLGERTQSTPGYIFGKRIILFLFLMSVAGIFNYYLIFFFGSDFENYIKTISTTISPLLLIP
Assay: FLAP binding assay, displacement of iodinated (125I) FLAP inhibitor, Scintillation Proximity Assay format
Settings: [125I]L-691,831 probe, membrane protein from sf9 cells; read-out: hFLAP binding IC50
Protocol: Compounds are assessed for the ability to bind to FLAP in a binding assay that measures compound-specific displacement of an iodinated (^125I) FLAP inhibitor via a Scintillation Proximity Assay format (adapted from S. Charleson et al., Mol. Pharmacol., 1992, 41, 873-879).
Cell pellets produced from sf9 insect cells expressing recombinant human FLAP protein are resuspended in buffer A [15 mM Tris-HCl (pH 7.5), 2 mM MgCl2, 0.3 mM EDTA, 1 mM PMSF]. The cells are lysed with a Dounce homogenizer and the material is centrifuged at 10,000×g for 10 minutes. The supernatant is then collected and centrifuged at 100,000×g for 60 minutes. To prepare membrane protein for an assay, an aliquot of the 100,000×g pellet is resuspended in 1 ml of buffer A, Dounce homogenized, and finally subjected to polytron mixing (30 seconds). Membrane protein (25 μl, 5 μg) is mixed with WGA SPA beads (Amersham) and stirred for 1 h. To an assay plate (Perkin Elmer FlexiPlate) is added 25 μl of test compound prepared in Binding buffer [100 mM Tris (pH 7.5), 140 mM NaCl, 5% glycerol, 2 mM EDTA, 0.5 mM TCEP, 0.05% Tween 20], 25 μl of [^125I]L-691,831 (an iodinated analog of MK-591, Charleson et al. Mol. Pharmacol., 41, 873-879, 1992) and finally 50 μl of the bead/protein mixture. (final concentrations: beads, 200 μg/well; protein, 5 μg/well; [^125I] probe, 0 08 nM/well (17 nCi/well). The plates are shaken for 2 h before reading on a Microbeta plate reader. Non-specific binding is determined by the addition of 10 μM cold L-691,831 compound.

Row | IC50 [nM] | SMILES
1 | 2.2 | COc1ccc(-n2cnc(C)n2)c(-c2nc3cc(-c4cnc(N)nc4)ccc3n2C(C)(C)C)c1 [5-{1-tert-Butyl-2-[5-methoxy-2-(3-methyl-1,2,4-triazol-1-yl)-phenyl]-1H-benzimidazol-5-yl}-pyrimidin-2-ylamine]
2 | 29.5 | CCNC(=O)c1ncn(-c2ccc(C#N)cc2-c2nc3cc(-c4cnc(N)nc4)ccc3n2C(C)(C)C)n1 [1-{2-[5-(2-Amino-pyrimidin-5-yl)-1-tert-butyl-1H-benzoimidazol-2-yl]-4-cyano-phenyl}-1H-[1,2,4]triazole-3-carboxylic acid ethylamide]
3 | 2.4 | CC(C)(C)n1c(-c2ccccc2-c2ccno2)nc2cc(-c3cnc(N)nc3)ccc21 [5-[1-tert-butyl-2-(2-isoxazol-5-yl-phenyl)-1H-benzoimidazol-5-yl]-pyrimidin-2-ylamine]
4 | 4.1 | CC(C)(C)n1c(-c2ccccc2-n2cc(Cl)cn2)nc2cc(-c3cnc(N)nc3)ccc21 [5-{1-tert-Butyl-2-[2-(4-chloro-pyrazol-1-yl)-phenyl]-1H-benzimidazol-5-yl}-pyrimidin-2-ylamine]
5 | 13.9 | COCc1ccc(-n2cncn2)c(-c2nc3cc(-c4cnc(N)nc4)ccc3n2C(C)(C)C)c1 [5-[1-tert-Butyl-2-(5-methoxymethyl-2-[1,2,4]triazol-1-yl-phenyl)-1H-benzoimidazol-5-yl]-pyrimidin-2-ylamine]
6 | 1.7 | COc1ccc(-n2cncn2)c(-c2nc3cc(-c4cnc(N)nc4)ccc3n2C(C)(C)C)c1 [5-[1-tert-Butyl-2-(5-methoxy-2-1,2,4-triazol-1-yl-phenyl)-1H-benzimidazol-5-yl]-pyrimidin-2-ylamine]
7 | 10.4 | CC(C)(C)n1c(-c2cc(CO)ccc2-n2cncn2)nc2cc(-c3cnc(N)nc3)ccc21 [{3-[5-(2-Amino-pyrimidin-5-yl)-1-tert-butyl-1H-benzoimidazol-2-yl]-4-[1,2,4]triazol-1-yl-phenyl}-methanol]
8 | 1.3 | Cc1ccnn1-c1ccc(C#N)cc1-c1nc2cc(-c3cnc(N)nc3)ccc2n1C(C)(C)C [3-[5-(2-Amino-pyrimidin-5-yl)-1-tert-butyl-1H-benzoimidazol-2-yl]-4-(5-methyl-pyrazol-1-yl)-benzonitrile]
9 | 24 | COc1ccc(-c2nc(C)no2)c(-c2nc3cc(-c4cnc(N)nc4)ccc3n2C(C)(C)C)c1 [5-{1-tert-Butyl-2-[5-methoxy-2-(3-methyl-1,2,4-oxadiazol-5-yl)-phenyl]-1H-benzimidazol-5-yl}-pyrimidin-2-ylamine]
10 | 2.7 | CC(C)(C)n1c(-c2ccccc2-n2cncn2)nc2cc(-c3cnc(N)nc3)ccc21
11 | 1.3 | CC(C)(C)n1c(-c2cc(Cl)ccc2-n2cccn2)nc2cc(-c3cnc(N)nc3)ccc21 [5-[1-tert-Butyl-2-(5-chloro-2-pyrazol-1-yl-phenyl)-1H-benzimidazol-5-yl]-pyrimidin-2-ylamine]
12 | 5.9 | CC(C)(COc1ccc(-n2cncn2)c(-c2nc3cc(-c4cnc(N)nc4)ccc3n2C(C)(C)C)c1)C(=O)O [3-{3-[5-(2-Amino-pyrimidin-5-yl)-1-tert-butyl-1H-benzimidazol-2-yl]-4-1,2,4-triazol-1-yl-phenoxy}-2,2-dimethyl-propionic acid]
13 | 0.83 | CC(C)(C)n1c(-c2cc(C#N)ccc2-n2cnc(Br)n2)nc2cc(-c3cnc(N)nc3)ccc21 [3-[5-(2-Amino-pyrimidin-5-yl)-1-tert-butyl-1H-benzoimidazol-2-yl]-4-(3-bromo-[1,2,4]triazol-1-yl)-benzonitrile]
14 | 5.5 | CC(C)(Oc1ccc(-c2nc3cc(-c4cnc(N)nc4)ccc3n2C(C)(C)C)c(-n2cncn2)c1)C(=O)O [2-{4-[5-(2-Amino-pyrimidin-5-yl)-1-tert-butyl-1H-benzoimidazol-2-yl]-3-[1,2,4]triazol-1-yl-phenoxy}-2-methyl-propionic acid]
15 | 5.2 | COc1ccc(-n2cccn2)c(-c2nc3cc(-c4cnc(N)nc4)ccc3n2C(C)(C)C)c1 [5-[1-tert-Butyl-2-(5-methoxy-2-pyrazol-1-yl-phenyl)-1H-benzimidazol-5-yl]-pyrimidin-2-ylamine]
16 | 1.7 | CC(C)(C)n1c(-c2cccc(F)c2-n2cncn2)nc2cc(-c3cnc(N)nc3)ccc21 [5-[1-tert-Butyl-2-(3-fluoro-2-1,2,4-triazol-1-yl-phenyl)-1H-benzimidazol-5-yl]-pyrimidin-2-ylamine]
17 | 2.2 | CC(C)Oc1ccc(-n2cncn2)c(-c2nc3cc(-c4cnc(N)nc4)ccc3n2C(C)(C)C)c1 [5-[1-tert-Butyl-2-(5-isopropoxy-2-1,2,4-triazol-1-yl-phenyl)-1H-benzimidazol-5-yl]-pyrimidin-2-ylamine]
18 | 2.1 | CC(C)(C)n1c(-c2ccccc2-n2cncn2)nc2cc(-c3cnc4c(c3)CCN4)ccc21 [1-tert-Butyl-5-(2,3-dihydro-1H-pyrrolo[2,3-b]pyridin-5-yl)-2-(2-1,2,4-triazol-1-yl-phenyl)-1H-benzimidazole]
19 | 12.4 | CC(C)COC(=O)c1ncn(-c2ccc(C#N)cc2-c2nc3cc(-c4cnc(N)nc4)ccc3n2C(C)(C)C)n1 [1-{2-[5-(2-Amino-pyrimidin-5-yl)-1-tert-butyl-1H-benzoimidazol-2-yl]-4-cyano-phenyl}-1H-[1,2,4]triazole-3-carboxylic acid isobutyl ester]
20 | 1.9 | Cc1noc(-c2ccc(Cl)cc2-c2nc3cc(-c4cnc(N)nc4)ccc3n2C(C)(C)C)n1 [5-{1-tert-Butyl-2-[5-chloro-2-(3-methyl-1,2,4-oxadiazol-5-yl)-phenyl]-1H-benzimidazol-5-yl}-pyrimidin-2-ylamine]
21 | 6.9 | CC(C)(C)n1c(-c2cc(OC3CCOC3)ccc2-n2cncn2)nc2cc(-c3cnc(N)nc3)ccc21 (centres unmarked) [5-{1-tert-Butyl-2-[5-(tetrahydro-furan-3-yloxy)-2-1,2,4-triazol-1-yl-phenyl]-1H-benzimidazol-5-yl}-pyrimidin-2-ylamine]
22 | 1.1 | COc1ccc(-n2cccn2)c(-c2nc3cc(-c4cnc5[nH]ccc5c4)ccc3n2C(C)(C)C)c1 [1-tert-Butyl-2-(5-methoxy-2-pyrazol-1-yl-phenyl)-5-(1H-pyrrolo[2,3-b]pyridin-5-yl)-1H-benzimidazole]
23 | 5.8 | CC(C)(C)n1c(-c2ccccc2-c2ncn(CCO)n2)nc2cc(-c3cnc(N)nc3)ccc21 [2-(3-{2-[5-(2-Amino-pyrimidin-5-yl)-1-tert-butyl-1H-benzoimidazol-2-yl]-phenyl}-[1,2,4]triazol-1-yl)-ethanol]
24 | 1.7 | CC(C)(C)n1c(-c2ccc(Cl)cc2-n2cncn2)nc2cc(-c3cnc(N)nc3)ccc21 [5-[1-tert-Butyl-2-(4-chloro-2-1,2,4-triazol-1-yl-phenyl)-1H-benzimidazol-5-yl]-pyrimidin-2-ylamine]

Row | SMILES | IC50 [nM]
25 | CN(C)C(=O)Oc1ccc(-n2cncn2)c(-c2nc3cc(-c4cnc(N)nc4)ccc3n2C(C)(C)C)c1 [Dimethyl-carbamic acid 3-[5-(2-amino-pyrimidin-5-yl)-1-tert-butyl-1H-benzimidazol-2-yl]-4-1,2,4-triazol-1-yl-phenyl ester] | 15.5
26 | CCNC(=O)Oc1ccc(-n2cncn2)c(-c2nc3cc(-c4cnc(N)nc4)ccc3n2C(C)(C)C)c1 [Ethyl-carbamic acid 3-[5-(2-amino-pyrimidin-5-yl)-1-tert-butyl-1H-benzimidazol-2-yl]-4-1,2,4-triazol-1-yl-phenyl ester] | 1.1

Test system: apoE/LDL-R double knockout mice
Assay: not given
Settings: oral dosing, high-fat diet from 2 months of age to 6 months; cited from earlier work

Row | SMILES | decrease in plaque coverage in the aorta [%] | decrease in plaque coverage in the aortic root [%]
27 | CC(C)c1ccc2c(c1)c(SC(C)(C)C)c(CC(C)(C)C(=O)O)n2Cc1ccc(Cl)cc1 [MK-886] | 56 | 43

Test system: ApoE−/−xCD4dnTβRII mice
Assay: not given
Settings: via infusion, treated for four weeks; cited from earlier work

Row | SMILES | decrease in plaque area in the aortic root [%]
28 | CC(C)c1ccc2c(c1)c(SC(C)(C)C)c(CC(C)(C)C(=O)O)n2Cc1ccc(Cl)cc1 [MK-886] | ~40

Test system: apoE-deficient mice
Assay: not given
Settings: cited from earlier work

Row | SMILES | effect on atherosclerosis
29 | C[C@H](C#Cc1ccc(Cc2ccc(F)cc2)s1)N(O)C(N)=O [VIA-2291] | attenuate atherosclerosis

Test system: biomarkers for myocardial infarction risk
Assay: not given
Settings: clinical trials; cited from earlier work

Row | SMILES | effect on biomarkers for myocardial infarction risk
30 | O=C(O)[C@@H](c1ccc(OCc2ccc3ccccc3n2)cc1)C1CCCC1 [DG-031] | dose-dependent suppression of several biomarkers

Test system: human glomerulonephritis
Assay: not given
Settings: clinical trial; cited from earlier work

Row | SMILES | effect on proteinuria
31 | CC(C)(C)Sc1c(CC(C)(C)C(=O)O)n(Cc2ccc(Cl)cc2)c2ccc(OCc3ccc4ccccc4n3)cc12 [MK-591] | reduce proteinuria
